# Test results: paper PMC10778824, “New Chalcone Derivatives Containing 2,4-Dichlorobenzenesulfonamide Moiety with Anticancer and Antioxidant Properties” (International Journal of Molecular Sciences, 2023)
# Columns and labels:
# [1] = test system: human neonatal fibroblasts; assay: MTT assay, noncancerous fibroblasts; assay type: cell-based; settings: 24 h treatment; for IC50: Homo sapiens, Fibroblast
# Procedure: (§1) The human gastric adenocarcinoma AGS, cervical cancer HeLa, and acute promyelocytic leukemia HL-60 cells were obtained from the American Type Culture Collection (ATCC, Manassas, VA, USA). Human neonatal fibroblasts were obtained from LGC Standards (Luckenwalde, Germany). The HeLa and AGS lines were cultured in Dulbecco’s modified Eagle’s medium (DMEM) and DMEM/F12 medium, respectively. The HL-60 line was maintained in RPMI-1640 medium. Fibroblasts were cultured in Fibroblast Growth Medium with Supplement Mix. All the media were supplemented with 100 units/mL of penicillin, 100 µg/mL of streptomycin, and 10% (v/v) fetal bovine serum (FBS) (Merck Millipore, Burlington, MA, USA). The cells were incubated at 37 °C and 5% CO2.
# (§2) To estimate the cytotoxic effect of the five compounds (4–8), MTT (3-(4,5-dimethylthiazol-2-yl)-2,5-diphenyltetrazolium bromide) assay was used. Oxaliplatin was used as a positive control in this test. All the cell lines were seeded in 96-well plates at a density of 5 × 10^3 cells/well and treated for 24 h with the compounds at concentrations of 0.5–40 µg/mL. Oxaliplatin was tested in the range of 20–400 µg/mL (50–1000 µM). After treatment, the cells were incubated with MTT (0.5 mg/mL; Merck Millipore, Burlington, MA, USA) for 3 h. Then, DMSO was used to dissolve formazan crystals, and the absorbance of the formazan solution was measured with a plate reader (Epoch, BioTek Instruments, Santa Clara, CA, USA). All the results (±standard deviation (SD)) were obtained from six repetitions in at least two independent experiments. The data are expressed as IC50 values (µg/mL).
# [2] = test system: cancer cells (HeLa, HL-60, AGS); assay: MTT assay, cancer cells taken together; assay type: cell-based, human; settings: HL-60 and AGS together
# Procedure: as §1, §2
# [3] = test system: gastric adenocarcinoma AGS; assay: MTT assay, AGS cells; assay type: cell-based, human; settings: for IC50: Homo sapiens, AGS, 24 h; for selectivity index AGS: SI = IC50 noncancer cells/IC50 cancer cells, in relation to human neonatal fibroblasts
# Procedure: as §1, §2
# neutrophil elastase = target: T1, neutrophil elastase (Sus scrofa, UniProt P00772); assay: Elastase assay (SANA substrate); assay type: biochemical, porcine; settings: Tris-HCl pH 8.0, SANA substrate; read-out: neutrophil elastase inhibition IC50 (converted)
# T1 construct: purchased Sigma Chemical Co. (St. Louis, MO, USA)
# Procedure: The elastase analysis was performed according to the spectrophotometric method with oleanolic acid as a reference. The reaction mixture (Tris-HCl buffer (pH 8.0), 1.0 μg/mL porcine pancreatic elastase, and different concentrations of chalcone derivatives was preincubated at room temperature for 15 min. Afterwards, the addition of the substrate—SANA—started the reaction. Product formation changes were analyzed at λ = 410 nm for 20 min every 20 s (Epoch, BioTek Instruments, Santa Clara, CA, USA). The control was composed of Tris-HCl buffer (pH 8.0), an appropriate concentration of the chalcone derivative, and SANA.
# [4] = test system: acute promyelocytic leukemia HL-60; assay: MTT assay, HL-60 cells; assay type: cell-based, human; settings: for IC50: Homo sapiens, HL-60, 24 h; for selectivity index HL-60: SI = IC50 noncancer cells/IC50 cancer cells, in relation to human neonatal fibroblasts
# Procedure: as §1, §2
# Campylobacter coli ZMF = assay: MIC determination; assay type: cell-based; settings: 37 °C, 48 h
# Procedure: (§3) The MIC determinations for Staphylococcus epidermidis ATCC14990, Staphylococcus aureus ATCC6538, Enterococcus faecalis ATCC51299, Klebsiella pneumoniae ATCC13883, Escherichia coli ATCC8739, Salmonella enterica ATCC13076, Helicobacter pylori ATCC43504, Campylobacter jejuni ZMF, Campylobacter coli ZMF, Bacillus cereus PCM 1948,2019 (ATCC11778), and Listeria monocytogenes PCM2191 were performed based on the methodology described by Krauze-Baranowska et al.. The procedure for H. pylori was used in the experiments with Campylobacter strains, and the procedure for B. subtilis was used in the experiments with L. monocytogenes and B. cereus. The tested samples were dissolved in DMSO and diluted with water (concentration of approximately 500 μg/mL). The solutions were diluted geometrically by transferring the mixture/dilution (100 μL) from the first to the twelfth well of the microtiter plate. The final concentrations of samples used for antimicrobial effects ranged from 500 to 0.006 µg/mL. Ampicillin was used as a reference compound in the concentration range of 128 to 0.0625 µg/mL. The tests were incubated at 37 °C for 48 h. The diluent concentration had no effect on the activity of the tested compounds. All experiments were performed in triplicate.
# [5] = test system: Staphylococcus aureus ATCC6538; assay: MIC determination; assay type: cell-based; settings: 37 °C, 48 h
# Procedure: as §3
# [6] = test system: Escherichia coli ATCC8739; assay: MIC determination; assay type: cell-based; settings: 37 °C, 48 h
# Procedure: as §3
# [7] = test system: Helicobacter pylori ATCC43504; assay: MIC determination; assay type: cell-based; settings: 37 °C, 48 h
# Procedure: as §3
# [8] = test system: Enterococcus faecalis ATCC51299; assay: MIC determination; assay type: cell-based; settings: 37 °C, 48 h
# Procedure: as §3
# [9] = test system: Staphylococcus epidermidis ATCC14990; assay: MIC determination; assay type: cell-based; settings: 37 °C, 48 h
# Procedure: as §3
# [10] = test system: Listeria monocytogenes PCM2191; assay: MIC determination; assay type: cell-based; settings: 37 °C, 48 h
# Procedure: as §3
# [11] = test system: Bacillus cereus PCM 1948,2019 (ATCC11778); assay: MIC determination; assay type: cell-based; settings: 37 °C, 48 h
# Procedure: as §3
# [12] = test system: Salmonella enterica ATCC13076; assay: MIC determination; assay type: cell-based; settings: 37 °C, 48 h
# Procedure: as §3
# [13] = test system: Klebsiella pneumoniae ATCC13883; assay: MIC determination; assay type: cell-based; settings: 37 °C, 48 h
# Procedure: as §3
# Campylobacter jejuni ZMF = assay: MIC determination; assay type: cell-based; settings: 37 °C, 48 h
# Procedure: as §3
# cervical cancer HeLa = assay: MTT assay, HeLa cells; assay type: cell-based, human; settings: for IC50: Homo sapiens, HeLa; for selectivity index HeLa: SI = IC50 noncancer cells/IC50 cancer cells, in relation to human neonatal fibroblasts
# Procedure: as §1, §2
# [14] = DPPH radical scavenging assay; settings: concentration of 800 µg/mL
# Procedure: The DPPH radical scavenging assay of samples (ligands or complexes) was performed with ascorbic acid as a standard. Different concentrations of chalcone derivatives, dissolved in DMSO, were mixed with the same amount of 0.06 mM DPPH methanolic solution and incubated at room temperature in the dark for 30 min. The absorbance was analyzed at λ = 517 nm using a 96-well microplate reader (Epoch, BioTek System, Winooski, VT, USA). The control was composed of DPPH and DMSO. DPPH inhibition was calculated according to the following Formula (2):DPPH Inhibition (%) = [(Acontrol − Asample)/Acontrol] × 100%(2)
# AGS cells [15] = assay: MitoPotential assay (mitochondrial membrane depolarization); assay type: cell-based, human; settings: 40 µg/mL, 5 h
# Procedure: The AGS cells were seeded in a 12-well plate (1 × 10^5 cells/well) and incubated with compound 5 at concentrations of 1, 5, and 10 µg/mL; oxaliplatin at the concentration of 40 µg/mL; and DMSO (0.2%, v/v). After 5 h of exposure, the cells were stained with the Muse MitoPotential Assay Kit (Merck Millipore, Burlington, MA, USA) and analyzed with the Muse Cell Analyzer (Merck Millipore, Burlington, MA, USA). The percentage of depolarized live and dead cells was estimated in the experiments, which were independently repeated three times.
# caspase-9 = assay: Caspase-Glo 9 activity assay in AGS cells; assay type: cell-based, human; settings: 20 µg/mL
# Procedure: (§4) The AGS cells were seeded in a 96-well plate (5 × 10^3 cells/well) and treated with compound 5 at concentrations of 1, 5, 7, and 10 µg/mL for 24 h; oxaliplatin at the concentration of 20 µg/mL; and DMSO (1%, v/v). The cells were then treated with reagents from Caspase-Glo 8 Assay or Caspase-Glo 9 Assay (Promega, Madison, WI, USA) and measured with the luminometer Glomax Multi + Detection System (Promega, Madison, WI, USA). The experiments were performed in two independent repeats in three repetitions.
# caspase-8 = assay: Caspase-Glo 8 activity assay in AGS cells; assay type: cell-based, human; settings: 20 µg/mL
# Procedure: as §4
# AGS cells [16] = assay: Cell cycle analysis (propidium iodide); assay type: cell-based, human; settings: 40 µg/mL
# Procedure: The AGS cells were seeded in a 6-well plate (5 × 10^5 cells/well) and incubated with compound 5 at concentrations of 1, 5, and 10 µg/mL for 48 h; oxaliplatin at the concentration of 40 µg/mL; and DMSO (0.2%, v/v). After treatment, the cells were stained with propidium iodide from the Muse Cell Cycle Assay Kit (Merck Millipore, Burlington, MA, USA), and the amount of cells in each phase of the cell cycle was determined using the Muse Cell Analyzer (Merck Millipore, Burlington, MA, USA). The experiment was independently repeated three times.
# T1 sequence (P00772 27-266): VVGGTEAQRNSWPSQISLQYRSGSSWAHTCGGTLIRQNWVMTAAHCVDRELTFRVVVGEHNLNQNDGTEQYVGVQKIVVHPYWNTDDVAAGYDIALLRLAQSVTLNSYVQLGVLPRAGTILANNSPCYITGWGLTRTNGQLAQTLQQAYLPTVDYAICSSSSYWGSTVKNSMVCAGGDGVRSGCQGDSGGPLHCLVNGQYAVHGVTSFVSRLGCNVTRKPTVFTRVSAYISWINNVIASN
Compound,IC50 [1],"IC50 ([3]; MTT, 24 h treatment)",selectivity index AGS [3],IC50 (neutrophil elastase),"IC50 ([4]; MTT, 24 h treatment)",selectivity index HL-60 [4],MIC (Campylobacter coli ZMF),MIC [5],MIC [6],MIC [7],MIC [8],MIC [9],MIC [10],MIC [11],MIC [12],MIC [13],MIC (Campylobacter jejuni ZMF),"IC50 (cervical cancer HeLa; MTT, 24 h treatment)",selectivity index HeLa (cervical cancer HeLa),% of DPPH radical inhibition [14],also measured
"Cc1cc(S(=O)(=O)Nc2ccc(C(=O)/C=C/c3ccc(F)cc3)cc2)c(Cl)cc1Cl [Compound 6, (E)-2,4-Dichloro-N-{4-[3-(4-Fluorophenyl)acryloyl]phenyl}-5-Methylbenzenesulfonamide]",27 ± 2.29 µg/mL,4.49 ± 0.44 µg/mL,6.01,181 µM,1.69 ± 0.2 µg/mL,15.98,> 500 µg/mL,> 500 µg/mL,> 500 µg/mL,> 500 µg/mL,> 500 µg/mL,> 500 µg/mL,> 500 µg/mL,> 500 µg/mL,> 500 µg/mL,> 500 µg/mL,> 500 µg/mL,8.65 ± 0.52 µg/mL,3.12,21.85 ± 0.22%,IC50 toward cancer cells [2]: weaker activity
"Cc1cc(S(=O)(=O)Nc2ccc(C(=O)/C=C/c3ccc(Cl)cc3)cc2)c(Cl)cc1Cl [Compound 7, (E)-2,4-Dichloro-N-{4-[3-(4-Chlorophenyl)acryloyl]phenyl}-5-Methylbenzenesulfonamide]",29.9 ± 3.27 µg/mL,< 1 µg/mL,19.08,53.3 µM,< 1.57 µg/mL,20.51,> 500 µg/mL,> 500 µg/mL,> 500 µg/mL,> 500 µg/mL,> 500 µg/mL,> 500 µg/mL,> 500 µg/mL,> 500 µg/mL,> 500 µg/mL,> 500 µg/mL,> 500 µg/mL,6.34 ± 0.04 µg/mL,4.72,18.70 ± 0.04%,"IC50 HL-60 ([4]; MTT, 24 h treatment): 1.46 ± 0.20 µg/mL"
"O=C1[O][Pt]2([NH][C@@H]3CCCC[C@H]3[NH]2)[O]C1=O [Oxaliplatin, reference compound]",–,–,–,–,–,–,–,–,–,–,–,–,–,–,–,–,–,–,–,–,"changes in percentages of live, depolarized, and dead cells versus control (AGS cells [15]): no observable changes; IC50 Fibroblasts [1]: 95.79 ± 3.24 µg/mL; IC50 AGS ([3]; MTT, 24 h treatment): 17.90 ± 1.20 µg/mL; caspase-9 activity (in words) (caspase-9): notable increase; IC50 HeLa (cervical cancer HeLa; MTT, 24 h treatment): 35.76 ± 1.72 µg/mL; caspase-8 activity (in words) (caspase-8): notable increase; amount of cells in subG0 phase (in words) (AGS cells [16]): significant increase; cells in G0/G1 phase (AGS cells [16]): 35.6%; cells in G2/M phase (AGS cells [16]): 32.4%; cells in S phase (AGS cells [16]): 14.2%"
